Test results reported in ChEMBL document CHEMBL1667853, “Design and synthesis of potent Gram-negative specific LpxC inhibitors” (Bioorg Med Chem Lett, 2011).
In brackets after ≈: the same amount, converted by molar mass.

How the values were obtained:
Escherichia coli [1] = assay: Antimicrobial activity against Escherichia coli HS294 by broth dilution assay; format: functional
Escherichia coli [2] = assay: Antimicrobial activity against Escherichia coli ATCC 25922 by broth dilution assay; format: functional
[3] = target: T1, UDP-3-O-acyl-N-acetylglucosamine deacetylase (Escherichia coli K-12, UniProt P0A725); assay: Inhibition of Escherichia coli LpxC
T1 sequence (P0A725 whole entry): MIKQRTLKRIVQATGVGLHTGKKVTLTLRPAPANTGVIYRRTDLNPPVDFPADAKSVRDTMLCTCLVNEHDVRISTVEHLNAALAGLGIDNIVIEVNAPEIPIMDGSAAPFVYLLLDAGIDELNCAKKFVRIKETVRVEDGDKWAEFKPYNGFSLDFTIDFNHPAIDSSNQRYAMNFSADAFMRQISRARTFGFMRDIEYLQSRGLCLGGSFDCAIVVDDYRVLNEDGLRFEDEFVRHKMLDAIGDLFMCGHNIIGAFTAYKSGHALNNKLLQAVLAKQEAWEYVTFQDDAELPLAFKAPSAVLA

Escherichia coli [4] = assay: Antimicrobial activity against multidrug-resistant Escherichia coli by broth dilution assay; format: functional
Enterobacter cloacae = assay: Antimicrobial activity against ESBL producing Enterobacter cloacae by broth dilution assay; format: functional
Klebsiella pneumoniae [5] = assay: Antimicrobial activity against wild type Klebsiella pneumoniae by broth dilution assay; format: functional
Pseudomonas aeruginosa [6] = assay: Antimicrobial activity against multidrug-resistant Pseudomonas aeruginosa by broth dilution assay; format: functional
Klebsiella pneumoniae [7] = assay: Antimicrobial activity against ESBL producing Klebsiella pneumoniae by broth dilution assay; format: functional
Pseudomonas aeruginosa [8] = assay: Antimicrobial activity against wild type Pseudomonas aeruginosa by broth dilution assay; format: functional
Escherichia coli [9] = assay: Antimicrobial activity against wild type Escherichia coli by broth dilution assay; format: functional
Escherichia coli [10] = assay: Antimicrobial activity against ESBL producing Escherichia coli by broth dilution assay; format: functional
[11] = tested on: Stenotrophomonas maltophilia; assay: Antimicrobial activity against wild type Stenotrophomonas maltophilia by broth dilution assay; format: functional
Klebsiella aerogenes = assay: Antimicrobial activity against wild type Enterobacter aerogenes by broth dilution assay; format: functional
[12] = tested on: Acinetobacter calcoaceticus; assay: Antimicrobial activity against wild type Acinetobacter calcoaceticus by broth dilution assay; format: functional
Proteus vulgaris = assay: Antimicrobial activity against wild type Proteus vulgaris by broth dilution assay; format: functional
Serratia marcescens = assay: Antimicrobial activity against wild type Serratia marcescens by broth dilution assay; format: functional
Acinetobacter baumannii = assay: Antimicrobial activity against wild type Acinetobacter baumannii by broth dilution assay; format: functional

Row | Compound | MIC (Escherichia coli [1]) [µg/mL] | MIC (Escherichia coli [2]) [µg/mL] | IC50 [3] [nM] | other results
1 | C[C@@H](O)[C@@H](NC(=O)N1CCC(c2ccc(C#Cc3ccccc3)cc2)CC1)C(=O)NO | 0.8 (≈ 1.9 µM) | 12.5 (≈ 29.7 µM) |  | 
2 | C[C@@H](O)[C@@H](NC(=O)N1CCN(c2ccc(C#Cc3ccc(Cl)cc3)cc2)CC1)C(=O)NO | 1.56 (≈ 3.41 µM) | 6.25 (≈ 13.7 µM) | 5 | 
3 | CC1(C)S[C@@H]2[C@H](NC(=O)[C@H](N)c3ccccc3)C(=O)N2[C@H]1C(=O)O [AMPICILLIN] |  |  |  | MIC (Escherichia coli [4]): > 8 µg/mL; MIC (Enterobacter cloacae): > 32 µg/mL; MIC (Klebsiella pneumoniae [5]): > 32 µg/mL; MIC (Pseudomonas aeruginosa [6]): > 256 µg/mL; MIC (Klebsiella pneumoniae [7]): > 32 µg/mL; MIC (Pseudomonas aeruginosa [8]): 4 µg/mL (≈ 11.4 µM); MIC (Escherichia coli [9]): 4 µg/mL (≈ 11.4 µM); MIC (Escherichia coli [10]): > 32 µg/mL; MIC [11]: > 32 µg/mL
4 | CC[C@H]1OC(=O)[C@H](C)[C@@H](O[C@H]2C[C@@](C)(OC)[C@@H](O)[C@H](C)O2)[C@H](C)[C@@H](O[C@@H]2O[C@H](C)C[C@H](N(C)C)[C@H]2O)[C@](C)(O)C[C@@H](C)CN(C)[C@H](C)[C@@H](O)[C@]1(C)O [AZITHROMYCIN] |  |  |  | MIC (Escherichia coli [4]): 32 µg/mL (≈ 42.7 µM); MIC (Pseudomonas aeruginosa [6]): 32 µg/mL (≈ 42.7 µM); MIC (Pseudomonas aeruginosa [8]): 4 µg/mL (≈ 5.34 µM)
5 | C[C@@H](O)[C@@H](NC(=O)N1CCC(c2ccc(-c3ccccc3)cc2)CC1)C(=O)NO | 0.8 (≈ 2.01 µM) | 6.25 (≈ 15.7 µM) | 13.8 | MIC (Klebsiella aerogenes): > 100 µg/mL; MIC (Escherichia coli [4]): 3.13 µg/mL (≈ 7.87 µM); MIC (Enterobacter cloacae): 3.13 µg/mL (≈ 7.87 µM); MIC (Klebsiella pneumoniae [5]): > 100 µg/mL; MIC (Pseudomonas aeruginosa [6]): > 12.5 µg/mL; MIC [12]: > 100 µg/mL; MIC (Klebsiella pneumoniae [7]): 12.5 µg/mL (≈ 31.4 µM); MIC (Proteus vulgaris): 3.13 µg/mL (≈ 7.87 µM); MIC (Pseudomonas aeruginosa [8]): 3.13 µg/mL (≈ 7.87 µM); MIC (Serratia marcescens): 6.25 µg/mL (≈ 15.7 µM); MIC (Escherichia coli [9]): 1.56 µg/mL (≈ 3.92 µM); MIC (Escherichia coli [10]): 3.13 µg/mL (≈ 7.87 µM); MIC [11]: > 100 µg/mL; MIC (Acinetobacter baumannii): > 100 µg/mL
6 | C[C@@H](O)[C@@H](NC(=O)NCc1ccc(C#Cc2ccccc2)cc1)C(=O)NO | 12.5 (≈ 34 µM) | > 100 | 201 | 
7 | C[C@@H](O)[C@@H](NC(=O)N1CCN(c2ccc(C#Cc3cccnc3)cc2)CC1)C(=O)NO | 12.5 (≈ 29.5 µM) | 100 (≈ 236 µM) | 63 | 
8 | C[C@@H](O)[C@@H](NC(=O)N1CCC(C#Cc2ccccc2)CC1)C(=O)NO | 3.13 (≈ 9.06 µM) | 25 (≈ 72.4 µM) | 207 | 
9 | C[C@@H](O)[C@@H](NC(=O)N1CCN(c2ccc(C#Cc3ccccn3)cc2)CC1)C(=O)NO | 6.25 (≈ 14.8 µM) | > 100 | 10 | 
10 | C[C@@H](O)[C@@H](NC(=O)NCCc1ccc(C#Cc2ccccc2)cc1)C(=O)NO | 50 (≈ 131 µM) | > 100 | 1270 | 
11 | C[C@@H](O)[C@H](C(=O)NO)N1Cc2cc(C#Cc3ccc(-c4ccccc4)cc3)ccc2C1=O |  |  | 13 | 
12 | C[C@@H](O)[C@@H](NC(=O)N1CCC(c2ccccc2)CC1)C(=O)NO | 12.5 (≈ 38.9 µM) |  | 3940 | 
13 | CCCCCCCCCCCCCC(=O)O[C@@H]1[C@@H](CC(=O)NO)CO[C@H](CO)[C@H]1O |  |  |  | Ki [3]: 650 nM
14 | C[C@@H](O)[C@@H](NC(=O)N1CCN(c2ccc(C#Cc3ccncc3)cc2)CC1)C(=O)NO | 0.8 (≈ 1.89 µM) | 3.13 (≈ 7.39 µM) | 4 | 
15 | CC(C)(O)[C@@H](NC(=O)N1CCN(c2ccc(-c3ccccc3)cc2)CC1)C(=O)NO | 0.8 (≈ 1.94 µM) | 3.13 (≈ 7.59 µM) | 7 | 
16 | C[C@@H](O)[C@@H](NC(=O)N1CCN(c2ccc(C#Cc3ccc(CO)cc3)cc2)CC1)C(=O)NO | 0.4 (≈ 0.884 µM) | 12.5 (≈ 27.6 µM) | 12 | 
17 | C[C@@H](O)[C@H](C(=O)NO)N1Cc2cc(Br)ccc2C1=O |  |  | > 61000 | 
18 | C[C@@H](O)[C@@H](NC(=O)N1CCN(c2ccc(C#Cc3cccs3)cc2)CC1)C(=O)NO | 1.56 (≈ 3.64 µM) | 25 (≈ 58.3 µM) | 21 | 
19 | C[C@@H](O)[C@H](C(=O)NO)N1Cc2cc(-c3ccc(-c4ccccc4)cc3)ccc2C1=O |  |  | 50 | 
20 | CC(C)(O)[C@@H](NC(=O)N1CCN(c2ccc(C#Cc3ccccc3)cc2)CC1)C(=O)NO | 0.1 (≈ 0.229 µM) | 0.8 (≈ 1.83 µM) | 0.3 | MIC (Klebsiella aerogenes): 12.5 µg/mL (≈ 28.6 µM); MIC (Escherichia coli [4]): 1.56 µg/mL (≈ 3.57 µM); MIC (Enterobacter cloacae): 6.25 µg/mL (≈ 14.3 µM); MIC (Klebsiella pneumoniae [5]): 12.5 µg/mL (≈ 28.6 µM); MIC (Pseudomonas aeruginosa [6]): 6.25 µg/mL (≈ 14.3 µM); MIC [12]: 25 µg/mL (≈ 57.3 µM); MIC (Klebsiella pneumoniae [7]): 6.25 µg/mL (≈ 14.3 µM); MIC (Proteus vulgaris): 3.13 µg/mL (≈ 7.17 µM); MIC (Pseudomonas aeruginosa [8]): > 50 µg/mL; MIC (Serratia marcescens): 6.25 µg/mL (≈ 14.3 µM); MIC (Escherichia coli [9]): 0.8 µg/mL (≈ 1.83 µM); MIC (Escherichia coli [10]): 1.56 µg/mL (≈ 3.57 µM); MIC [11]: 25 µg/mL (≈ 57.3 µM); MIC (Acinetobacter baumannii): > 50 µg/mL
21 | C[C@@H](O)[C@H](C(=O)NO)N1Cc2cc(C#Cc3ccccc3)ccc2C1=O |  |  | 130 | 
22 | C[C@@H](O)[C@H](C(=O)NO)N1Cc2cc(-c3ccccc3)ccc2C1=O |  |  | 41000 | 
23 | C[C@@H](O)[C@@H](NC(=O)N1CCC(c2cccc(C#Cc3ccccc3)c2)C1)C(=O)NO (some centres undefined) | 1.56 (≈ 3.83 µM) | 100 (≈ 245 µM) | 146 | 
24 | O=C(O)c1cn(C2CC2)c2cc(N3CCNCC3)c(F)cc2c1=O [CIPROFLOXACIN] |  |  |  | MIC (Escherichia coli [4]): > 32 µg/mL; MIC (Klebsiella pneumoniae [5]): 1 µg/mL (≈ 3.02 µM); MIC (Pseudomonas aeruginosa [6]): > 8 µg/mL; MIC (Pseudomonas aeruginosa [8]): 0.012 µg/mL (≈ 0.0362 µM); MIC [11]: 0.016 µg/mL (≈ 0.0483 µM)
